Experiments:
[1] = target: T1, GST-hLGK1 (human liver type GK) (Homo sapiens, UniProt P35557); assay: Determination of GK activity value (Mant-ATP conversion, capillary electrophoresis); format: biochemical; details: concentration necessary for activating 50% of the maximum GK activity value, 37° C., 60 min, D-glucose added
T1 construct: with a BamHI site added to immediately before the initiation codon; made in house; host or cells: Escherichia coli BL21
T1 sequence (P35557 1-464 isoform P35557-3): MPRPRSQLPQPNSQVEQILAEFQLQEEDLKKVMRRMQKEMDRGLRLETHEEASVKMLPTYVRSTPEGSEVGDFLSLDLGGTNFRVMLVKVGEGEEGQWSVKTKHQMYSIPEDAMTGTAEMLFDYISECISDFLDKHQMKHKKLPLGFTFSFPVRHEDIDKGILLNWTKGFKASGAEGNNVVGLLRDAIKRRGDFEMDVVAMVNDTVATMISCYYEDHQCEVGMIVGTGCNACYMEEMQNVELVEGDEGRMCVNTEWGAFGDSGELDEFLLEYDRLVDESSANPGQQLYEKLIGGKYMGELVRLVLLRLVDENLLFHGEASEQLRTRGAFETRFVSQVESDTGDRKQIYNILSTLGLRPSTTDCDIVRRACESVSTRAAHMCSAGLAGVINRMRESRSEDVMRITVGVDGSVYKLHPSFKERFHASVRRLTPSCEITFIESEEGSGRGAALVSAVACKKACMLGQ
Procedure: A solution (5 μL) of test compound in 50% dimethyl sulfoxide was added to each well of 384 well black plate (Nalge Nunc International K.K.). Then, a solution (35 μL) obtained by diluting GST-hLGK1 obtained in Reference Example 2A with measurement buffer (containing 50 mM HEPES (pH 7.4), 200 mM KCl, 5 mM MgCl2, 2.5 mM DTT and 50 μM 2′-(or -3′)-O—(N-methylanthraniloyl)adenosine 5′-triphosphate (Mant-ATP) (Jena Bioscience GmbH)) to 6 μg/mL was added to each well.
Each well was stood at 37° C. for 10 min, and 25 mM D-glucose solution (10 μL) was added to start the reaction.
Each well after the reaction was stood at 37° C. for 60 min, and the reaction was quenched by adding 25 μL of a quenching solution (containing 200 mM HEPES (pH 7.4), 20 mM MgCl2, 200 mM EDTA, 0.03% Triton-X 100, 0.3% Coating 3 reagent (Caliper Life Sciences, Inc.)).
Mant-ATP (substrate) and Mant-ADP (reaction resultant product) were separated from each well after the reaction by a microchip type capillary electrophoresis apparatus 250 HTS (Caliper Life Sciences, Inc.). The reaction rate [(reaction resultant product peak height)/(reaction resultant product peak height+substrate peak height)×100(%)] was calculated from the ratio of the substrate peak height and reaction resultant product peak height obtained by fluorescence detection (excitation wavelength 355 nm, measurement wavelength 460 nm) and used as the index of GK activity.
As a control group, the reaction rate was calculated in the same manner as above except that “solution in 50% dimethyl sulfoxide” was used instead of “solution of test compound in 50% dimethyl sulfoxide”.
The percentage obtained by dividing the reaction rate of the well added with the test compound (test compound addition group) by the reaction rate of the well added with 50% solution in dimethyl sulfoxide alone (control group) was taken as the GK activity value of the test compound, and the concentration of the test compound necessary for activating 50% of the maximum value of the activity value is shown as EC50 value.

- melting point: 197 to 198 °C
- EC50 [1]: 29 nM
Compound: CN(c1ccc(F)c2cc(-c3nccs3)[nH]c12)S(=O)(=O)c1cccs1 [Example 182, N-[4-fluoro-2-(1,3-thiazol-2-yl)-1H-indol-7-yl]-N-methylthiophene-2-sulfonamide]
